# Tests used:
# Test in all cases: KinaseProfiler kinase profiling
# Assay type in all cases: biochemical
# Settings in all cases: 10 μM, ATP near Km
# [1] = biological target: T1, MEK1 (Homo sapiens, UniProt Q02750)
# T1 construct: purchased Millipore, Inc. (KinaseProfiler service)
# Experimental: (§1) Compound 1 was tested for off-target kinase activity at a concentration of 10 μM by Millipore, Inc. in their KinaseProfiler™ service against all the kinases available in their full kinase panel. Compound 1 was run in duplicate at a concentration of ATP near the Km for each individual kinase according to Millipore's specifications. Data are reported as percent of control (POC) and are the average of the two replicates.
# [2] = biological target: T2, KDR (Homo sapiens, UniProt P35968)
# T2 construct: purchased Millipore, Inc. (KinaseProfiler service)
# Experimental: as §1
# [3] = biological target: T3, IR (Homo sapiens, UniProt P06213)
# T3 construct: purchased Millipore, Inc. (KinaseProfiler service)
# Experimental: as §1
# [4] = biological target: T4, Ron (Homo sapiens, UniProt Q04912)
# T4 construct: purchased Millipore, Inc. (KinaseProfiler service)
# Experimental: as §1
# [5] = biological target: T5, ErbB4 (Homo sapiens, UniProt Q15303)
# T5 construct: purchased Millipore, Inc. (KinaseProfiler service)
# Experimental: as §1
# [6] = biological target: T6, LOK (Homo sapiens, UniProt O94804)
# T6 construct: purchased Millipore, Inc. (KinaseProfiler service)
# Experimental: as §1
# [7] = biological target: T7, PKCeta (Homo sapiens, UniProt P24723)
# T7 construct: purchased Millipore, Inc. (KinaseProfiler service)
# Experimental: as §1
# [8] = biological target: T8, DAPK2 (Homo sapiens, UniProt Q9UIK4)
# T8 construct: purchased Millipore, Inc. (KinaseProfiler service)
# Experimental: as §1
# [9] = biological target: T9, MARK2 (Homo sapiens, UniProt Q7KZI7)
# T9 construct: purchased Millipore, Inc. (KinaseProfiler service)
# Experimental: as §1
# [10] = biological target: T10, FAK2 (Homo sapiens, UniProt Q14289)
# T10 construct: purchased Millipore, Inc. (KinaseProfiler service)
# Experimental: as §1
# [11] = biological target: T11, AKT3 (Homo sapiens, UniProt Q9Y243)
# T11 construct: purchased Millipore, Inc. (KinaseProfiler service)
# Experimental: as §1
# [12] = biological target: T12, PrKX (Homo sapiens, UniProt P51817)
# T12 construct: purchased Millipore, Inc. (KinaseProfiler service)
# Experimental: as §1
# [13] = biological target: T13, CHK1 (Homo sapiens, UniProt O14757)
# T13 construct: purchased Millipore, Inc. (KinaseProfiler service)
# Experimental: as §1
# [14] = biological target: T14, IKKalpha (Homo sapiens, UniProt O15111)
# T14 construct: purchased Millipore, Inc. (KinaseProfiler service)
# Experimental: as §1
# [15] = biological target: T15, EphA3 (Homo sapiens, UniProt P29320)
# T15 construct: purchased Millipore, Inc. (KinaseProfiler service)
# Experimental: as §1
# [16] = biological target: T16, DRAK1 (Homo sapiens, UniProt Q9UEE5)
# T16 construct: purchased Millipore, Inc. (KinaseProfiler service)
# Experimental: as §1
# [17] = biological target: T17, Tie2 (Homo sapiens, UniProt Q02763)
# T17 construct: purchased Millipore, Inc. (KinaseProfiler service)
# Experimental: as §1
# [18] = biological target: T18, GRK7 (Homo sapiens, UniProt Q8WTQ7)
# T18 construct: purchased Millipore, Inc. (KinaseProfiler service)
# Experimental: as §1
# [19] = biological target: T19, MAPKAP-K5 (Homo sapiens, UniProt Q8IW41)
# T19 construct: purchased Millipore, Inc. (KinaseProfiler service)
# Experimental: as §1
# [20] = biological target: T20, MAP4K2 (Homo sapiens, UniProt Q12851)
# T20 construct: purchased Millipore, Inc. (KinaseProfiler service)
# Experimental: as §1
# [21] = biological target: T21, MRCKalpha (Homo sapiens, UniProt Q5VT25)
# T21 construct: purchased Millipore, Inc. (KinaseProfiler service)
# Experimental: as §1
# [22] = biological target: T22, Flt3 (Homo sapiens, UniProt P36888)
# T22 construct: purchased Millipore, Inc. (KinaseProfiler service)
# Experimental: as §1
# [23] = biological target: T23, PAK2 (Homo sapiens, UniProt Q13177)
# T23 construct: purchased Millipore, Inc. (KinaseProfiler service)
# Experimental: as §1
# [24] = biological target: T24, CK2alpha2 (Homo sapiens, UniProt P19784)
# T24 construct: purchased Millipore, Inc. (KinaseProfiler service)
# Experimental: as §1
# [25] = biological target: T25, Rsk2 (Homo sapiens, UniProt P51812)
# T25 construct: purchased Millipore, Inc. (KinaseProfiler service)
# Experimental: as §1
# [26] = biological target: T26, IR Activated (Homo sapiens, UniProt P06213)
# T26 construct: purchased Millipore, Inc. (KinaseProfiler service)
# Experimental: as §1
# [27] = biological target: T27, NEK3 (Homo sapiens, UniProt P51956)
# T27 construct: purchased Millipore, Inc. (KinaseProfiler service)
# Experimental: as §1
# [28] = biological target: T28, CAMK1d (Homo sapiens, UniProt Q8IU85)
# T28 construct: purchased Millipore, Inc. (KinaseProfiler service)
# Experimental: as §1
# [29] = biological target: T29, DDR2 (Homo sapiens, UniProt Q16832)
# T29 construct: purchased Millipore, Inc. (KinaseProfiler service)
# Experimental: as §1
# [30] = biological target: T30, PDK1 (Homo sapiens, UniProt O15530)
# T30 construct: purchased Millipore, Inc. (KinaseProfiler service)
# Experimental: as §1
# [31] = biological target: T31, DMPK (Homo sapiens, UniProt Q09013)
# T31 construct: purchased Millipore, Inc. (KinaseProfiler service)
# Experimental: as §1
# [32] = biological target: T32, CHK2 (Homo sapiens, UniProt O96017)
# T32 construct: purchased Millipore, Inc. (KinaseProfiler service)
# Experimental: as §1
# [33] = biological target: T33, FGFR2 (Homo sapiens, UniProt P21802)
# T33 construct: purchased Millipore, Inc. (KinaseProfiler service)
# Experimental: as §1
# [34] = biological target: T34, Lck (Homo sapiens, UniProt P06239)
# T34 construct: purchased Millipore, Inc. (KinaseProfiler service)
# Experimental: as §1
# [35] = biological target: T35, EphA4 (Homo sapiens, UniProt P54764)
# T35 construct: purchased Millipore, Inc. (KinaseProfiler service)
# Experimental: as §1
# [36] = biological target: T36, PDGFRalpha (Homo sapiens, UniProt P16234)
# T36 construct: purchased Millipore, Inc. (KinaseProfiler service)
# Experimental: as §1
# [37] = biological target: T37, Pim-1 (Homo sapiens, UniProt P11309)
# T37 construct: purchased Millipore, Inc. (KinaseProfiler service)
# Experimental: as §1
# [38] = biological target: T38, p70S6K (Homo sapiens, UniProt P23443)
# T38 construct: purchased Millipore, Inc. (KinaseProfiler service)
# Experimental: as §1
# [39] = biological target: T39, CAMK2g (Homo sapiens, UniProt Q13555)
# T39 construct: purchased Millipore, Inc. (KinaseProfiler service)
# Experimental: as §1
# [40] = biological target: T40, NEK11 (Homo sapiens, UniProt Q8NG66)
# T40 construct: purchased Millipore, Inc. (KinaseProfiler service)
# Experimental: as §1
# [41] = biological target: T41, ALK (Homo sapiens, UniProt Q9UM73)
# T41 construct: purchased Millipore, Inc. (KinaseProfiler service)
# Experimental: as §1
# T22 sequence (P36888 27-993): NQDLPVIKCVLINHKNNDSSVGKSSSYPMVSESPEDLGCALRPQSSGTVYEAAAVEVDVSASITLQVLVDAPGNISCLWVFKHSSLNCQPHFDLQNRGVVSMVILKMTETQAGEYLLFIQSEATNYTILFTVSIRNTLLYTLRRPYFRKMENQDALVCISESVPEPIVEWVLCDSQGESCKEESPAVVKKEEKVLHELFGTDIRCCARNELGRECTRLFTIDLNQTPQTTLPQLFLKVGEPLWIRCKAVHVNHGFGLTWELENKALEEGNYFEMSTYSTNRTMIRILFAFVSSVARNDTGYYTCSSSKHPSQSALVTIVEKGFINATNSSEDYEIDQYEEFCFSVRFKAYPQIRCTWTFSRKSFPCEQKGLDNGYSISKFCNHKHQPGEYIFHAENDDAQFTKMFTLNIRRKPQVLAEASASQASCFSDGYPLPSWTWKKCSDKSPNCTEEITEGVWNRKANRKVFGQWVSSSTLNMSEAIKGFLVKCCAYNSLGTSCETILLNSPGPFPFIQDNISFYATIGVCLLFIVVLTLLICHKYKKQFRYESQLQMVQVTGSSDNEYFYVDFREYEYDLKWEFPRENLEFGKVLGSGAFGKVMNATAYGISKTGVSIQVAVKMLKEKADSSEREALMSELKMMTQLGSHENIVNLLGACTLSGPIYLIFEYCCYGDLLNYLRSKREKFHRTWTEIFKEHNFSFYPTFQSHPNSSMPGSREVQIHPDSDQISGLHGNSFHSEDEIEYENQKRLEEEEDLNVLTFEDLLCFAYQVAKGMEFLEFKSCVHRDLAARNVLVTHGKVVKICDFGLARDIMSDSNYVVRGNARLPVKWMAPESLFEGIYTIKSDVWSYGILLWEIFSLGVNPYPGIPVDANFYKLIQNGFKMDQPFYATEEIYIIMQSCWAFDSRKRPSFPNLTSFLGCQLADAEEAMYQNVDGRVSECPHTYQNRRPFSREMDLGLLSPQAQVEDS
# T31 sequence (Q09013 whole entry): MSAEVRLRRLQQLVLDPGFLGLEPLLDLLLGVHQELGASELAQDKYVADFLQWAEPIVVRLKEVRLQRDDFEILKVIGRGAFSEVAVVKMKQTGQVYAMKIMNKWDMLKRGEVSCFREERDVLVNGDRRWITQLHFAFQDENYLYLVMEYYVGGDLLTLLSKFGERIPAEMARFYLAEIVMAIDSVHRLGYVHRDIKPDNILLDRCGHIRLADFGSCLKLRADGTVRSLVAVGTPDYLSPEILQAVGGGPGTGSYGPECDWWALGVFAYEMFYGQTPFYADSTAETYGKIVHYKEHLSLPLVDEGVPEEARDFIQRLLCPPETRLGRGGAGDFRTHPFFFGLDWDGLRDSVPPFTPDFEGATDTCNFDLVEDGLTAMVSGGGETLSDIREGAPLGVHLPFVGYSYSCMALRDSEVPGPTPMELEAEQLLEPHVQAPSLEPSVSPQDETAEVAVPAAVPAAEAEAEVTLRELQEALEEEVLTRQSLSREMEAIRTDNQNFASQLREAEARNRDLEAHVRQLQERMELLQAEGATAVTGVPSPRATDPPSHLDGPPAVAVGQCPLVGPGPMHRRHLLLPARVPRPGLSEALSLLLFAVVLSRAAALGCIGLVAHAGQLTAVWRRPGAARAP
# T33 sequence (P21802 22-821): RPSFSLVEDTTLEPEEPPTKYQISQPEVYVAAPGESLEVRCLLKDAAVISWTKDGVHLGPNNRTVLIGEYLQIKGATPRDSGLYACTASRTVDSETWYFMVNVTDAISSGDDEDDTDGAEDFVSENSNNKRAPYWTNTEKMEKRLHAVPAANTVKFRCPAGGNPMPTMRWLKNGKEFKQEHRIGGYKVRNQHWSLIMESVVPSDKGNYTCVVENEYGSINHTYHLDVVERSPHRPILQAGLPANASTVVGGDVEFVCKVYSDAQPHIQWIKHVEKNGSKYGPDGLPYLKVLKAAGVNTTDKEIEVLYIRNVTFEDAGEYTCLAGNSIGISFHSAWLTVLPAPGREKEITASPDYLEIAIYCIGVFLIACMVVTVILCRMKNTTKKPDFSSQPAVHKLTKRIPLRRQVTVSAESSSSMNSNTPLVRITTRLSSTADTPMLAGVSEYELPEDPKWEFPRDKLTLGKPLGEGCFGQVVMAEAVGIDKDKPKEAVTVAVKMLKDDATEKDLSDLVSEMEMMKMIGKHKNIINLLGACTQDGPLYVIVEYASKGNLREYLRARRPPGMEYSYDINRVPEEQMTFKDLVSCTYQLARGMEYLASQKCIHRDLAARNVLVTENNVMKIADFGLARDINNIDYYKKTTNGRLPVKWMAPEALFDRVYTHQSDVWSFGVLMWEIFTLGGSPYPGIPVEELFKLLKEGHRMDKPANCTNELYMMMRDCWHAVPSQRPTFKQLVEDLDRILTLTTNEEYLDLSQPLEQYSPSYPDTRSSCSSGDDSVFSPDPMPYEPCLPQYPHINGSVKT
# T1 sequence (Q02750 whole entry): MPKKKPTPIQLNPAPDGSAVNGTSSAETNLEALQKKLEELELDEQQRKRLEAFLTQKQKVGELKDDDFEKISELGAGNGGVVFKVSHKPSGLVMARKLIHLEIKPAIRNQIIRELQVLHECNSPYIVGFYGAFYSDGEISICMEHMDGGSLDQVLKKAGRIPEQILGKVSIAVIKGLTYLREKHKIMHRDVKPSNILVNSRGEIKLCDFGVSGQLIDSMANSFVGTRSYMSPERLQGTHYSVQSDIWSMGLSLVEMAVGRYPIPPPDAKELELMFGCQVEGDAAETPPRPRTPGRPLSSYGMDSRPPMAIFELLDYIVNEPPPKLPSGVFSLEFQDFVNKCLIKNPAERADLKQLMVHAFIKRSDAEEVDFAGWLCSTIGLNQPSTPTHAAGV
# T19 sequence (Q8IW41 whole entry): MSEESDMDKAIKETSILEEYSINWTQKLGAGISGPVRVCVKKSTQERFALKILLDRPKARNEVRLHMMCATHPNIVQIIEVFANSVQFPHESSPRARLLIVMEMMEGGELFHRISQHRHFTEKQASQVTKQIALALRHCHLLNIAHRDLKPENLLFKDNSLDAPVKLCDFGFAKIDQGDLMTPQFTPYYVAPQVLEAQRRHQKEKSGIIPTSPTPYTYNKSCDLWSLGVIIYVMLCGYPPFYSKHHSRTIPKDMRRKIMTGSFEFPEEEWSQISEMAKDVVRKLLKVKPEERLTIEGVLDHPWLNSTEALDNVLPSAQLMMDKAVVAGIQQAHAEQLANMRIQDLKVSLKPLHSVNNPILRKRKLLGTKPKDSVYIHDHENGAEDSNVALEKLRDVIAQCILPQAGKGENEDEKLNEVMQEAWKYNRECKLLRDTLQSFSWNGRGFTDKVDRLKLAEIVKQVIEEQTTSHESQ
# T21 sequence (Q5VT25 whole entry): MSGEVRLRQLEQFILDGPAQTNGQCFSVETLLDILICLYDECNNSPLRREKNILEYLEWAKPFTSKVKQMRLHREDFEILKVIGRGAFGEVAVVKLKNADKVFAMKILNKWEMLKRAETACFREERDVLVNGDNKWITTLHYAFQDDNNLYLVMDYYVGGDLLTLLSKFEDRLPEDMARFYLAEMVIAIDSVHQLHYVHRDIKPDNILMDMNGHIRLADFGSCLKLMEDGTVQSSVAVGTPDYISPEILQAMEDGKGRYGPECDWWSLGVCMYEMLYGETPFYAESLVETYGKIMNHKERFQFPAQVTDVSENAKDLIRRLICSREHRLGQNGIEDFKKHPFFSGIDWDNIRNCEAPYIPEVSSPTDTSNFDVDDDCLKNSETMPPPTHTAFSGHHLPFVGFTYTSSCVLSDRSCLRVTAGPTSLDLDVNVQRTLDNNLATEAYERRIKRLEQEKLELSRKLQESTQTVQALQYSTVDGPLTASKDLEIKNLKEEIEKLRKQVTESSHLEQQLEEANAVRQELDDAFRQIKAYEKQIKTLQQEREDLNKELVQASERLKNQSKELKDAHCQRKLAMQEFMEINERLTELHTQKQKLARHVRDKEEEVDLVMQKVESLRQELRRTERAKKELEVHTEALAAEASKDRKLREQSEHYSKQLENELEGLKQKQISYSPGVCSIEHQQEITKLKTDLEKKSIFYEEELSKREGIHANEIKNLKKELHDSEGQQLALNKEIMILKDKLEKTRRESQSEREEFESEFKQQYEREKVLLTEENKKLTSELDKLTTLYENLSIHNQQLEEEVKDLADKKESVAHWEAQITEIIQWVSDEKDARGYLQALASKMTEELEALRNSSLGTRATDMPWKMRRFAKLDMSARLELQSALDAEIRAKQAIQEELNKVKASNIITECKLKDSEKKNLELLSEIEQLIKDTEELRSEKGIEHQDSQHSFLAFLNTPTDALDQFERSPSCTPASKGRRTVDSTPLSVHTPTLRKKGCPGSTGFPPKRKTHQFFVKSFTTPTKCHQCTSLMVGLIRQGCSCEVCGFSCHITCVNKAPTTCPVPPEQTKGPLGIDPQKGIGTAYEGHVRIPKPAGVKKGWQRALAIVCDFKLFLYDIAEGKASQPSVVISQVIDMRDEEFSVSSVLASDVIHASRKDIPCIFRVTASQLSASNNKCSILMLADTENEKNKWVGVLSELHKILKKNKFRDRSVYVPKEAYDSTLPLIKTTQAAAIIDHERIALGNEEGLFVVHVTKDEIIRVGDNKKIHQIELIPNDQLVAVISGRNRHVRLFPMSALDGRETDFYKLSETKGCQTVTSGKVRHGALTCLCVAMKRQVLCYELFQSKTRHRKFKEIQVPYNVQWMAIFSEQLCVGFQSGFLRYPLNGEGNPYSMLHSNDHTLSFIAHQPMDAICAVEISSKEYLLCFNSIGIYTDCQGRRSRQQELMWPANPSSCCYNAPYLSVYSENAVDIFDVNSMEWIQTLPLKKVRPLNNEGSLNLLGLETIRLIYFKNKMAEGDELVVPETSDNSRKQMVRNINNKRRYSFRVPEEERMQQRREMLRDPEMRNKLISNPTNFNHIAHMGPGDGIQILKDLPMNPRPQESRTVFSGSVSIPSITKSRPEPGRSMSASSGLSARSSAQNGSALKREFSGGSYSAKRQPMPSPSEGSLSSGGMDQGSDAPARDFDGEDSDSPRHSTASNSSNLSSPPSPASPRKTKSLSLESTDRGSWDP
smiles,measurement,setting,value
"COCCN1C[C@@H](NC(=O)Nc2c(C)c(-c3cnc(C)nc3)nn2-c2ccccc2)[C@H](c2cccc(F)c2)C1 [Compound 1, 1-((3S,4R)-4-(3-fluorophenyl)-1-(2-methoxyethyl)pyrrolidin-3-yl)-3-(4-methyl-3-(2-methylpyrimidin-5-yl)-1-phenyl-1H-pyrazol-5-yl)urea]",Avg POC,[1],103.5 POC
same,Avg POC,[2],102.5 POC
same,Avg POC,[3],84.5 POC
same,Avg POC,[4],100 POC
same,Avg POC,[5],107.5 POC
same,Avg POC,[6],125.5 POC
same,Avg POC,[7],100 POC
same,Avg POC,[8],97 POC
same,Avg POC,[9],109.5 POC
same,Avg POC,[10],92.5 POC
same,Avg POC,[11],113.5 POC
same,Avg POC,[12],115.5 POC
same,Avg POC,[13],109 POC
same,Avg POC,[14],101.5 POC
same,Avg POC,[15],95.5 POC
same,Avg POC,[16],129.5 POC
same,Avg POC,[17],82 POC
same,Avg POC,[18],101 POC
same,Avg POC,[19],89.5 POC
same,Avg POC,[20],101 POC
same,Avg POC,[21],90.5 POC
same,Avg POC,[22],102 POC
same,Avg POC,[23],105.5 POC
same,Avg POC,[24],106 POC
same,Avg POC,[25],93 POC
same,Avg POC,[26],105.5 POC
same,Avg POC,[27],104.5 POC
same,Avg POC,[28],130 POC
same,Avg POC,[29],121.5 POC
same,Avg POC,[30],104 POC
same,Avg POC,[31],98.5 POC
same,Avg POC,[32],102.5 POC
same,Avg POC,[33],99 POC
same,Avg POC,[34],94 POC
same,Avg POC,[35],98 POC
same,Avg POC,[36],96 POC
same,Avg POC,[37],103.5 POC
same,Avg POC,[38],104 POC
same,Avg POC,[39],97 POC
same,Avg POC,[40],94 POC
same,Avg POC,[41],89 POC

# Reference: patent US10835533B2, “1 -((3S,4R)-4-(3-fluorophenyl)-1-(2-methoxyethyl)pyrrolidin-3-yl)-3-(4-methyl-3-(2-methylpyrimidin-5-yl)-1-phenyl-1H-pyrazol-5-yl)urea as a TrkA kinase inhibitor” (Array BioPharma Inc., priority 2014, dated 2020)
